Laboratory results: the RepoRT retention time repository (doi:10.1021/acs.analchem.9b05135)

Assay: RP, Waters ACQUITY UPLC BEH C18, 100 × 1 mm, 1.7 µm, -1 °C, 0.15 mL/min, estimated dead time 0.33 min; A: water + 0.1% formic acid; B: acetonitrile + 0.1% formic acid; gradient (min/%B) 0/5 8/25 14/70 20/95 23/95
Conditions: stereoisomer not certain
For CS(=O)CCC(N)C(=O)O (centres undefined), the LC retention time was 0.6 min.
With CNCC(=O)O the LC retention time was 0.7 min.
Nc1ccnc(=O)[nH]1 showed an LC retention time of 4 min.
Compound CC(=O)NC(CCC(=O)O)C(=O)O (centres undefined) has an LC retention time of 0.6 min.
For NC(COP(=O)(O)O)C(=O)O (centres undefined), the LC retention time was 0.6 min.
Compound CC(N)C(=O)O (centres undefined) has an LC retention time of 0.7 min.
Compound Cc1cn(C2CC(O)C(COP(=O)(O)O)O2)c(=O)[nH]c1=O (centres undefined) has an LC retention time of 1.2 min.
Compound C[S+](CCC(N)C(=O)O)CC1OC(n2cnc3c(N)ncnc32)C(O)C1O (centres undefined) has an LC retention time of 0.6 min.
CC(C)C(N)C(=O)O (centres undefined) showed an LC retention time of 0.7 min.
Work on C[N+](C)(C)CC(O)CC(=O)[O-] (centres undefined) yielded an LC retention time of 0.7 min.
In the case of CC(C(=O)O)C(O)(CC(=O)O)C(=O)O (centres undefined), the LC retention time is reported as 4.3 min.
In the case of Nc1ccccc1C(=O)CC(N)C(=O)O (centres undefined), the LC retention time is reported as 0.9 min.
CCC(=O)OC(CC(=O)[O-])C[N+](C)(C)C (centres undefined) showed an LC retention time of 0.6 min.
Compound NC(CCO)C(=O)O (centres undefined) has an LC retention time of 0.9 min.
Cc1ncccc1C(N)=O gave an LC retention time of 0.7 min.
With CSCCC(NC(C)=O)C(=O)O (centres undefined) the LC retention time was 0.6 min.
For CC(=O)OC(CC(=O)[O-])C[N+](C)(C)C (centres undefined), the LC retention time was 0.7 min.
For CCCC(=O)OC(CC(=O)[O-])C[N+](C)(C)C (centres undefined), the LC retention time was 0.6 min.
Compound C[N+](C)(C)CCO has an LC retention time of 0.6 min.
With CC(=O)NC(CCC(N)=O)C(=O)O (centres undefined) the LC retention time was 0.6 min.
Compound NC(=O)CCC(N)C(=O)O (centres undefined) has an LC retention time of 0.8 min.
With Cc1c[nH]c(=O)[nH]c1=O the LC retention time was 0.7 min.
C[N+](C)(C)CCOP(=O)(O)O gave an LC retention time of 0.7 min.
In the case of NC(=O)NCCCC(N)C(=O)O (centres undefined), the LC retention time is reported as 0.5 min.
For NC(=NCCCC(N)C(=O)O)NC(CC(=O)O)C(=O)O (centres undefined), the LC retention time was 0.6 min.
CC(C)(CO)C(O)C(=O)NCCC(=O)O (centres undefined) showed an LC retention time of 0.7 min.
CC(C)CC(=O)OC(CC(=O)[O-])C[N+](C)(C)C (centres undefined) gave an LC retention time of 0.7 min.
Work on Cc1cn(C2CC(O)C(CO)O2)c(=O)[nH]c1=O (centres undefined) yielded an LC retention time of 0.7 min.
NC(=O)c1cccnc1 gave an LC retention time of 0.8 min.
Compound CC(=O)NC1C(OP(=O)(O)OP(=O)(O)OCC2OC(n3ccc(=O)[nH]c3=O)C(O)C2O)OC(CO)C(O)C1O (centres undefined) has an LC retention time of 0.7 min.
For NC(CCC(=O)NC(CS)C(=O)NCC(=O)O)C(=O)O (centres undefined), the LC retention time was 3 min.
CC(C)CC(N)C(=O)O (centres undefined) showed an LC retention time of 0.7 min.
For CSCC1OC(n2cnc3c(N)ncnc32)C(O)C1O (centres undefined), the LC retention time was 0.7 min.
NC(Cc1c[nH]c2ccccc12)C(=O)O (centres undefined) gave an LC retention time of 1.2 min.
